Legend:
[1] = system: HN-Aβ complex (A549 cell-conditioned media); test: ELISA, HN found in a complex with Aβ in A549 cell-conditioned media; format: binding, human; conditions: 6E10 or 82E1 on wells, relative to samples without ATP, three experiments in triplicate, Fig. 5A
Experimental: (§1) Human NSCLC cell lines, A549 (ATCC CCL‐185) and H1299 (ATCC CRL‐5803), were purchased from the American Type Culture Collection (ATCC, Manassas, VA, USA). Cells were seeded as we reported earlier in 5 mL HyClone Dulbecco's modified Eagle's medium/nutrient mixture F‐12 (DMEM/F12) (GE Healthcare Life Sciences, Pittsburgh, PA, USA), supplemented with 10% Fetalgro bovine growth serum (FBS; RMBIO, Missoula, MT, USA), 50 U·mL^−1 penicillin, and […] streptomycin (Invitrogen, Life Technologies, Carlsbad, CA, USA) in 25‐cm^2 tissue culture flasks, and allowed to grow overnight in an incubator at 37 °C, 95% humidity, and 5% CO2. The cells were counted after trypan blue staining, with a hemocytometer.
ELISAs were carried out as we previously reported. […] TBST was then used to wash the wells 4× before proceeding in one of two ways: (a) biotinylated samples were analyzed by adding 100 µL streptavidin–HRP conjugate in TBST (1 : 2500 dilution) to the samples followed by incubation for 3 h at RT on a shaker, or (b) samples without biotin were analyzed by adding 100 µL TBST containing the primary antibody as per the manufacturer's recommendation, incubating for 3 h at RT on a shaker, followed by washing the wells 4× with TBST. […] The reaction was stopped with 100 µL 2 M H2SO4 after incubating at RT for 0.5–15 min, resulting in a yellow color change, measured by absorbance at 450 nm. […]

[2] = system: AChE-Aβ complex (A549 cell-conditioned media); test: ELISA, AChE found in a complex with Aβ in A549 cell-conditioned media; format: binding, human
Experimental: as §1
ELISAs were carried out as we previously reported. Nunc MaxiSorp 96‐well flat bottom plate (Thermo Fisher) wells were coated with samples as indicated. The plates were incubated overnight at 4 °C on a shaker to allow binding of the samples to the plate wells. After the incubation, the wells were washed 4× with TBST, filled with 400 µL blocking buffer (110 mM KCl, 5 mM NaHCO3, 5 mM MgCl2, 1 mM EGTA, 0.1 mM CaCl2, 20 mM HEPES, 1% BSA, pH 7.4), and incubated with shaking overnight at 4 °C. […] TBST was then used to wash the wells 4× before proceeding in one of two ways: (a) biotinylated samples were analyzed by adding 100 µL streptavidin–HRP conjugate in TBST (1 : 2500 dilution) to the samples followed by incubation for 3 h at RT on a shaker, or (b) samples without biotin were analyzed by adding 100 µL TBST containing the primary antibody as per the manufacturer's recommendation, incubating for 3 h at RT on a shaker, followed by washing the wells 4× with TBST. […] The reaction was stopped with 100 µL 2 M H2SO4 after incubating at RT for 0.5–15 min, resulting in a yellow color change, measured by absorbance at 450 nm. […] Before analysis, the OD from the data was corrected for nonspecific binding by subtracting the mean background absorbance for the negative controls. […] Statistical analysis was determined by the […] […] Data were expressed as the mean ± SD. […]

Aβ40 = test: ELISA, binding of biotinylated-HN to immobilised Aβ40; conditions: Aβ 100 nM on wells, biotinylated-HN 300 nM, increasing HS; three independent assays; Fig. 2B
Experimental: (§2) ELISAs were carried out as we previously reported. Nunc MaxiSorp 96‐well flat bottom plate (Thermo Fisher) wells were coated with samples as indicated. The plates were incubated overnight at 4 °C on a shaker to allow binding of the samples to the plate wells. After the incubation, the wells were washed 4× with TBST, filled with 400 µL blocking buffer (110 mM KCl, 5 mM NaHCO3, 5 mM MgCl2, 1 mM EGTA, 0.1 mM CaCl2, 20 mM HEPES, 1% BSA, pH 7.4), and incubated with shaking overnight at 4 °C. The wells were then washed 4× with TBST, and 100 µL of sample at the desired concentration was added to each well and incubated with shaking overnight at 4 °C. TBST was then used to wash the wells 4× before proceeding in one of two ways: (a) biotinylated samples were analyzed by adding 100 µL streptavidin–HRP conjugate in TBST (1 : 2500 dilution) to the samples followed by incubation for 3 h at RT on a shaker, or (b) samples without biotin were analyzed by adding 100 µL TBST containing the primary antibody as per the manufacturer's recommendation, incubating for 3 h at RT on a shaker, followed by washing the wells 4× with TBST. […] The reaction was stopped with 100 µL 2 M H2SO4 after incubating at RT for 0.5–15 min, resulting in a yellow color change, measured by absorbance at 450 nm. […] Statistical analysis was determined by the […] […] Data were expressed as the mean ± SD. […]

Aβ42 = test: ELISA, binding of biotinylated-HN to immobilised Aβ42; conditions: Aβ 100 nM on wells, biotinylated-HN 300 nM, increasing HS; three independent assays; Fig. 2B
Experimental: as §2

H1299 cells = conditions: cited from earlier work
AChE-Aβ interaction = conditions: cited from earlier work
From the text: Access to the central domain of Aβ (residues 17–24) flanked by Lys‐16 and Lys‐28, known to be a critical structural element in fibrillar Aβ aggregates, might be regulated by binding of AChE and HN to their overlapping binding sites on Aβ. […] Moreover, we s ...

## Nc1ncnc2c1ncn2[C@@H]1O[C@H](COP(=O)(O)OP(=O)(O)OP(=O)(O)O)[C@@H](O)[C@H]1O [ATP, Adenosine triphosphate]
[1]; 100 μM ATP
  increase in the amount of HN bound to Aβ: ~ 1.85 fold
[1]; 1 mM ATP
  increase in the amount of HN bound to Aβ: ~ 2.5 fold
[2]; 100 μM ATP, 6E10 or 82E1 on wells, three experiments in triplicate, Fig. 5A
  decrease in levels of AChE found in a complex with Aβ: ~ 2.3 fold
[2]; 1 mM ATP, 6E10 or 82E1 on wells, Fig. 5A
  levels of AChE found in a complex with Aβ: decreased to almost blank levels
[2]; anti-AChE on wells, Aβ detected by 6E10 or 82E1, Fig. 5B
  Aβ detected on anti-AChE wells upon ATP addition: comparable decrease in the levels of Aβ

## heparan sulfate [HS]
Aβ40
  effect of HS on binding of HN to Aβ40: No effects
Aβ42
  effect of HS on binding of HN to Aβ42: No effects

## Humanin [HN]
H1299 cells; HN immunodepleted from H1299 conditioned media
  cell viability upon ID of HN: diminished cell viability
H1299 cells; HN-ID H1299 media
  apoptosis upon ID of HN: increased apoptosis
AChE-Aβ interaction
  effect of HN on binding of AChE to Aβ: it is not abolished

Reference: publication PMC7714071, “Interaction of amyloid beta with humanin and acetylcholinesterase is modulated by ATP” (FEBS Open Bio, 2020)
